Reference: paper PMC9330653, “Targeting the Ubiquinol-Reduction (Qi) Site of the Mitochondrial Cytochrome bc1 Complex for the Development of Next Generation Quinolone Antimalarials” (Biology, 2022)
Converted amounts (≈) assume the structure as drawn. Where two headings read alike, the source gives them in different places.

Assays:
[1] = target: PfNDH2 (P. falciparum mitochondrial type II NADH: ubiquinone oxidoreductase); details: cited from earlier work
[2] = target: T1, Pfbc1 (P. falciparum cytochrome bc1) (Plasmodium falciparum, UniProt Q02768); details: cited from earlier work
T1 sequence (Q02768 1-376): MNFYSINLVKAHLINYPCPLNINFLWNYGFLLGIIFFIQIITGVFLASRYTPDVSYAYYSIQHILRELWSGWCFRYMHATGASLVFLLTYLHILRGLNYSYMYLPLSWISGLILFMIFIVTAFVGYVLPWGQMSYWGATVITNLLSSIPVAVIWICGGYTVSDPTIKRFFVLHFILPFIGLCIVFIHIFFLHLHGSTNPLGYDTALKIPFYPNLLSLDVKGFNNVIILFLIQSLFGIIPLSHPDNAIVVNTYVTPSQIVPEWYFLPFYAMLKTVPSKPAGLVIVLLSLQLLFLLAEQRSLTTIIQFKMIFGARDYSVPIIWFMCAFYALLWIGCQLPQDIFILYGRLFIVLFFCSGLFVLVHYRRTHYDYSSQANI

bovine cytochrome bc1 = target: T2, bovine cytochrome bc1 (Bos taurus, UniProt P00157); assay: Bovine cytochrome bc1 activity assay; assay type: biochemical; details: triplicate
T2 construct: Crude mitochondria were isolated from fresh bovine hearts; from tissue; host or cells: bovine heart mitochondria
Experimental: Cytochrome bc1 was purified from mitochondria, as previously described. Crude mitochondria were isolated from fresh bovine hearts and solubilized with the addition of dodecyl-maltoside (DDM). The solubilized protein was loaded onto a 50 mL DEAE Sepharose CL6B (GE Healthcare, Uppsala, Sweden) column pre-equilibrated in and washed with three column volumes of 50 mM KPi pH 7.5, 250 mM NaCl, 0.5 mM EDTA, and 0.01% DDM. The bound protein was eluted along a linear gradient from 250 to 500 mM NaCl. Cytochrome bc1 fractions were pooled and concentrated in a centrifugal ultrafilter (MWCO. 100 kDa) and loaded onto a 120 mL Sephacryl S300 column (GE Healthcare, Uppsala, Sweden) equilibrated in and eluted at a flow rate of 0.5 mL/min with 20 mM KMOPS pH 7.2, 100 mM NaCl, 0.5 mM EDTA, 0.01% DDM. Cytochrome bc1 fractions were pooled and concentrated to 40 mg/mL. PEG fractionation with an increasing amount of PEG4000 was used to precipitate cytochrome bc1. […] The inhibitors were dissolved in DMSO at the concentration of 50 mM and 5 μM cytochrome bc1 was incubated with 50 μM inhibitor (10-fold molar excess) at 4 °C for 12 h.
The inhibitors were added to the assay without prior incubation. The reaction was initiated by the addition of 50 μM decylubiquinol (Sigma-Aldrich, St. Louis, MO, USA).

[3] = test system: Plasmodium falciparum 3D7; details: drug sensitive P. falciparum 3D7 whole cells; cited from earlier work
[4] = test system: Plasmodium falciparum TM90C2B; details: atovaquone resistant parasite TM90C2B; cited from earlier work
[5] = parameters: method as in doi:10.1039/C5MD00062A; details: at pH 1; cited from earlier work
[6] = target: T1, Pfbc1 (P. falciparum cytochrome bc1); assay: Pf cytochrome bc1 enzyme inhibition; assay type: biochemical; details: at 100 nM; single point concentration only, full IC50 not available; measured in this work
Text: Table 1 Inhibition profiles of selected antimalarial compounds against whole cells of Plasmodium falciparum (Pf) (3D7 and TM90C2B strains) and individual mitochondrial enzymes. | column: IC50 (nM) (Pfbc1) *

[7] = test system: Plasmodium falciparum FCR3A strain; parameters: method as in PMID 23234553; details: FCR3A strain used as atovaquone-resistant parasite (footnote †); read-out: IC50 (nM) (TM90C2B); cited from earlier work
[8] = single point concentration only, full IC50 not available

Compound | inhibition at 0.1 µM (bovine cytochrome bc1) [%] | inhibition at 1 µM (bovine cytochrome bc1) [%] | inhibition at 0.1 µM [6] [%] | IC50 [1] [nM] | IC50 [2] [nM] | IC50 [3] [nM] | IC50 [4] [nM] | IC50 (nM) (TM90C2B) [4] | aqueous solubility [5] [µM] | IC50 [1, 8] [nM] | IC50 [7] [nM]
COc1cc2[nH]c(C)c(-c3ccc(Oc4ccc(OC(F)(F)F)cc4)cc3)c(=O)c2cc1Cl [ELQ300] | 22 ± 5 | 51 ± 7 |  |  | 0.56 | 2.2 | 1.7 |  | < 1 |  | 
COc1ccc2c(=O)c(C)c(-c3cncc(-c4ccc(OC(F)(F)F)cc4)c3)[nH]c2c1 [SCR0911] | 9 ± 2 | 72 ± 5 | 80 |  |  | 12 ± 3 | 7.2 |  | 7.8 (≈ 3.33 µg/mL) | > 1000 | 
Cc1[nH]c(C)c(-c2ccc(Oc3ccc(OC(F)(F)F)cc3)cc2)c(=O)c1Cl [GW844520] | 59 ± 6 | 79 ± 3 |  |  | 2 | 5 |  |  |  | > 10000 | 2
Cc1[nH]c(CO)c(-c2ccc(Oc3ccc(OC(F)(F)F)cc3)cc2)c(=O)c1Cl [GSK932121] | 65 ± 4 | 82 ± 5 |  |  | 7 | 6 |  |  |  | > 10000 | 6

Second part, led by results:

inhibition at 0.1 µM (bovine cytochrome bc1) [%] | inhibition at 1 µM (bovine cytochrome bc1) [%] | inhibition at 0.1 µM [6] [%] | Compound | IC50 [1] [nM] | IC50 [2] [nM] | IC50 [3] [nM] | IC50 [4] [nM] | IC50 (nM) (TM90C2B) [4] | aqueous solubility [5] [µM] | IC50 [1, 8] [nM] | IC50 [7] [nM]
81 ± 4 | 93 ± 2 |  | Cc1c(-c2ccc(Cc3ccc(OC(F)(F)F)cc3)cc2)n(O)c2ccccc2c1=O [RKA066] | 55 | 28 | 22 ± 0.4 | 217 ± 18 | triple-digit nanomolar |  |  | 
7 ± 1 | 61 ± 3 |  | Cc1[nH]c2ccccc2c(=O)c1-c1ccc(Cc2ccc(OC(F)(F)F)cc2)cc1 [WDH-1U-4] | 492 | < 10 | 36 ± 6 | 5 ± 2 |  |  |  | 
